Assays:
Bruton's Tyrosine Kinase = Bruton's Tyrosine Kinase (Homo sapiens, UniProt Q06187); experiment: Bruton's Tyrosine Kinase (BTK) Inhibition TR-FRET competition assay; assay type: binding; settings: inactivated state of BTK; Kinase Tracer 178; 18-24 h at 14° C
Procedure: This BTK competition assay measures compound potency (IC50) for the inactivated state of Bruton's Tyrosine Kinase using FRET (Forster/Fluorescence Resonance Energy Transfer) technology. The BTK-Eu complex was incubated on ice one hour prior to use at a starting concentration of 50 nM BTK-Bioease™: 10 nM Eu-streptavidin (Perkin-Elmer Catalog# AD0062). The assay buffer consisted of 20 mM HEPES (pH 7.15), 0.1 mM DTT, 10 mM MgCl2, 0.5 mg/ml BSA with 3% Kinase Stabilizer (Fremont Biosolutions, Catalog # STB-K02). After 1 h, the reaction mixture from above was diluted 10 fold in assay buffer to make 5 nM BTK: 1 nM Eu-Streptavidin complex (donor fluorophore). […] of a mixture of 0.11 nM BTK-Eu and 0.11 nM Kinase Tracer 178 (Invitrogen, Catalog # PV5593,) with BTK-Eu alone as no negative control, was then dispensed into 384-well flat bottom plates (Greiner, 784076). Compounds to be tested in assay were prepared as 10× concentrations and serial dilution in half-log increments was performed in DMSO so as to generate 10 point curves. To initiate the FRET reaction, compounds prepared as 10× stock in DMSO was added to the plates and the plates were incubated 18-24 h at 14° C.
After the incubation the plates were read on a BMG Pherastar Fluorescent plate reader (or equivalent) and used to measure the emission energy from the europium donor fluorophore (620 nm emission) and the FRET (665 nm emission). The negative control well values were averaged to obtain the mean minimum. The positive “no inhibitor” control wells were averaged to obtain the mean maximum. Percent of maximal FRET was calculated using following equation:
% max FRET=100×[(FSRcmpd−FSRmean min)/(FSRmean max−FSRmean min)]
where FSR=FRET Signal ratio. % Max FRET curves were plotted in Activity Base (Excel) and the IC50(%), hill slope, z′ and % CV were determined. The mean IC50 and standard deviation will be derived from duplicate curves (singlet inhibition curves from two independent dilutions) using Microsoft Excel.

B cells in human blood = experiment: Inhibition of B cell activation in whole blood measured by CD69 expression; assay type: cell-based; settings: anti-IgM stimulation, 20 hours, CD69-positive cells that are also CD20-positive, read-out: HWB IC50
Procedure: A procedure to test the ability of Btk inhibitors to suppress B cell receptor-mediated activation of B cells in human blood is as follows:
Human whole blood (HWB) is obtained from healthy volunteers, with the following restrictions: 24 hr drug-free, non-smokers. Blood is collected by venipuncture into Vacutainer tubes anticoagulated with sodium heparin. Test compounds are diluted to ten times the desired starting drug concentration in PBS (20×), followed by three-fold serial dilutions in 10% DMSO in PBS to produce a nine point dose-response curve. 5.5 μl of each compound dilution is added in duplicate to a 2 ml 96-well V bottom plate (Analytical Sales and Services, #59623-23); 5.5 μl of 10% DMSO in PBS is added to control and no-stimulus wells. HWB (100 μl) is added to each well, and after mixing the plates are incubated at 37 C, 5% CO2, 100% humidity for 30 minutes. Goat F(ab′)2 anti-human IgM (Southern Biotech, #2022-14) (10 μl of a 500 μg/ml solution, 50 μg/ml final concentration) is added to each well (except the no-stimulus wells) with mixing and the plates are incubated for an additional 20 hours.
At the end of the 20 hour incubation, samples are incubated with florescent-probe-labeled anti-bodies (15 μl PE Mouse anti-Human CD20, BD Pharmingen, #555623, and/or 20 ul APC Mouse anti-Human CD69, BD Pharmingen #555533) for 30 minutes, at 37 C, 5% CO2, 100% humidity. Included are induced control, unstained and single stains for compensation adjustments and initial voltage settings. Samples are then lysed with 1 ml of 1× Pharmingen Lyse Buffer (BD Pharmingen #555899), and plates are centrifuged at 1800 rpm for 5 minutes. Supernatants are removed via suction and the remaining pellets are lysed again with another 1 ml of 1× Pharmingen Lyse Buffer, and plates are spun down as before. Supernatants are aspirated and remaining pellets are washed in FACs buffer (PBS+1% FBS). After a final spin, the supernantants are removed and pellets are resuspended in 180 μl of FACs buffer. Samples are transferred to a 96 well plate suitable to be run on the HTS 96 well system on the BD LSR II flow cytometer.
Using appropriate excitation and emission wavelengths for the fluorophores used, data are acquired and percent positive cell values are obtained using Cell Quest Software. Results are initially analyzed by FACS analysis software (Flow Jo). […] The IC50 values are calculated using XLfit software version 3, equation 201.

Chain of Bruton's Tyrosine Kinase (Q06187 whole entry): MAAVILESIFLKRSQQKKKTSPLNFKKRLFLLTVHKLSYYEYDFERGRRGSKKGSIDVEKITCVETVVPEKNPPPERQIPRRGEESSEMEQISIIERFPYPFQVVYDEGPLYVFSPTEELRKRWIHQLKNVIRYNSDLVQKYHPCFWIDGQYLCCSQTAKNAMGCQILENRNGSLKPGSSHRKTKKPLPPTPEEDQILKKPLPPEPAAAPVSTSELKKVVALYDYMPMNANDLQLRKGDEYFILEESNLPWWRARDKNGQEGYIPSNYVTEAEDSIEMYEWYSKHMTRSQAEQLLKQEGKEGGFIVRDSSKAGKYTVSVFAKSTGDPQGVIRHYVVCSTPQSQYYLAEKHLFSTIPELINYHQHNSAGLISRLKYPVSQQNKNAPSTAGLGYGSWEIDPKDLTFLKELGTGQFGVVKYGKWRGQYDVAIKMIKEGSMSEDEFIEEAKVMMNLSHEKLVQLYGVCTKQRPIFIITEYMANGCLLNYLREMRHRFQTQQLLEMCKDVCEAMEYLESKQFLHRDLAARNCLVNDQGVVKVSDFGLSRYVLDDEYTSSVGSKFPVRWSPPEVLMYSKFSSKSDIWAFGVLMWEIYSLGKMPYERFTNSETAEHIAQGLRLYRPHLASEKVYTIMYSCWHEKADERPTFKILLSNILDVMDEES

SMILES | IC50 (Bruton's Tyrosine Kinase) [nM] | IC50 (B cells in human blood) [nM]
Cn1cc(-c2cc3c(-c4ccc(CNC(=O)c5ccc(C6CC6)cc5)cc4)ncnc3[nH]2)cn1 [Compound I-22, 4-Cyclopropyl-N-{4-[6-(1-methyl-1H-pyrazol-4-yl)-7H-pyrrolo[2,3-d]pyrimidin-4-yl]-benzyl}-benzamide] | 8 | 5480
CC(C)c1ccc(C(=O)NCc2ccc(-c3ncnc4[nH]c(-c5cnn(C)c5)cc34)cc2)cc1 [Compound I-23, 4-Isopropyl-N-{4-[6-(1-methyl-1H-pyrazol-4-yl)-7H-pyrrolo[2,3-d]pyrimidin-4-yl]-benzyl}-benzamide] | 7 | 1400
Cn1cc(-c2cc3c(-c4ccc(CNC(=O)c5ccc(C6(C)COC6)cc5)cc4)ncnc3[nH]2)cn1 [Compound I-25, 4-(3-Methyl-oxetan-3-yl)-N-{4-[6-(1-methyl-1H-pyrazol-4-yl)-7H-pyrrolo[2,3-d]pyrimidin-4-yl]-benzyl}-benzamide] | 44 | 28900
Cn1cc(-c2cc3c(-c4ccc(CNC(=O)c5cc6c(s5)CCCC6)cc4)ncnc3[nH]2)cn1 [Compound I-26, 4,5,6,7-Tetrahydro-benzo[b]thiophene-2-carboxylic acid 4-[6-(1-methyl-1H-pyrazol-4-yl)-7H-pyrrolo[2,3-d]pyrimidin-4-yl]-benzylamide] | 1 | 608
Cn1cc(-c2cc3c(-c4ccc(CNC(=O)c5ccc(C(C)(C)C)cc5)c(F)c4)ncnc3[nH]2)cn1 [Compound I-27, 4-tert-Butyl-N-{2-fluoro-4-[6-(1-methyl-1H-pyrazol-4-yl)-7H-pyrrolo[2,3-d]pyrimidin-4-yl]-benzyl}-benzamide] | 2 | 812
Cn1cc(-c2cc3c(-c4ccc(CNC(=O)c5ccc(C(C)(C)C)nc5)c(F)c4)ncnc3[nH]2)cn1 [Compound I-28, 6-tert-Butyl-N-{2-fluoro-4-[6-(1-methyl-1H-pyrazol-4-yl)-7H-pyrrolo[2,3-d]pyrimidin-4-yl]-benzyl}-nicotinamide] | 4 | 2540
Cc1ccc(C(=O)NCc2ccc(-c3ncnc4[nH]c(-c5cnn(C)c5)cc34)cc2F)s1 [Compound I-29, 5-Methyl-thiophene-2-carboxylic acid 2-fluoro-4-[6-(1-methyl-1H-pyrazol-4-yl)-7H-pyrrolo[2,3-d]pyrimidin-4-yl]-benzylamide] | 3 | 470
CC(C)(C)c1ccc(C(=O)NCc2ccc(-c3ncnc4[nH]c(-c5cnn(CCO)c5)cc34)cc2F)cc1 [Compound I-30, 4-tert-Butyl-N-(2-fluoro-4-{6-[1-(2-hydroxy-ethyl)-1H-pyrazol-4-yl]-7H-pyrrolo[2,3-d]pyrimidin-4-yl}-benzyl)-benzamide] | 0.7 | 1040
CN(Cc1ccc(-c2ncnc3[nH]c(-c4cnn(C)c4)cc23)cc1F)C(=O)c1ccc(C(C)(C)C)cc1 [Compound I-31, 4-tert-Butyl-N-{2-fluoro-4-[6-(1-methyl-1H-pyrazol-4-yl)-7H-pyrrolo[2,3-d]pyrimidin-4-yl]-benzyl}-N-methyl-benzamide] | 20 | 6050
Cn1cc(-c2cc3c(-c4ccc(CN5Cc6cc(C(C)(C)C)sc6C5=O)c(F)c4)ncnc3[nH]2)cn1 [Compound I-33, 2-tert-Butyl-5-{2-fluoro-4-[6-(1-methyl-1H-pyrazol-4-yl)-7H-pyrrolo[2,3-d]pyrimidin-4-yl]-benzyl}-4,5-dihydro-thieno[2,3-c]pyrrol-6-one] | 1 | 129
Cn1cc(-c2cc3c(-c4ccc(CNC(=O)c5cc(C(C)(C)C)on5)c(F)c4)ncnc3[nH]2)cn1 [Compound I-34, 5-tert-Butyl-isoxazole-3-carboxylic acid 2-fluoro-4-[6-(1-methyl-1H-pyrazol-4-yl)-7H-pyrrolo[2,3-d]pyrimidin-4-yl]-benzylamide] | 0.2 | 76
Cn1cc(-c2cc3c(-c4ccc(CNC(=O)c5ccc(C6(C)COC6)cc5)c(F)c4)ncnc3[nH]2)cn1 [Compound I-35, N-{2-Fluoro-4-[6-(1-methyl-1H-pyrazol-4-yl)-7H-pyrrolo[2,3-d]pyrimidin-4-yl]-benzyl}-4-(3-methyl-oxetan-3-yl)-benzamide] | 8 | 5500
Cn1cc(-c2cc3c(-c4ccc(CNC(=O)c5ccc(C(C)(C)C#N)cc5)c(F)c4)ncnc3[nH]2)cn1 [Compound I-36, 4-(Cyano-dimethyl-methyl)-N-{2-fluoro-4-[6-(1-methyl-1H-pyrazol-4-yl)-7H-pyrrolo[2,3-d]pyrimidin-4-yl]-benzyl}-benzamide] | 4 | 6740
Cn1cc(-c2cc3c(-c4ccc(CNC(=O)c5cc6c(s5)CCCC6)c(F)c4)ncnc3[nH]2)cn1 [Compound I-37, 4,5,6,7-Tetrahydro-benzo[b]thiophene-2-carboxylic acid 2-fluoro-4-[6-(1-methyl-1H-pyrazol-4-yl)-7H-pyrrolo[2,3-d]pyrimidin-4-yl]-benzylamide] | 0.3 | 655
Cn1cc(-c2cc3c(-c4ccc(CNC(=O)c5ccc(C(C)(C)O)cc5)c(F)c4)ncnc3[nH]2)cn1 [Compound I-38, N-{2-Fluoro-4-[6-(1-methyl-1H-pyrazol-4-yl)-7H-pyrrolo[2,3-d]pyrimidin-4-yl]-benzyl}-4-(1-hydroxy-1-methyl-ethyl)-benzamide] | 3 | 3270
Cn1cc(-c2cc3c(-c4ccc(CNC(=O)c5cc(C(C)(C)C)no5)c(F)c4)ncnc3[nH]2)cn1 [Compound I-39, 3-tert-Butyl-isoxazole-5-carboxylic acid 2-fluoro-4-[6-(1-methyl-1H-pyrazol-4-yl)-7H-pyrrolo[2,3-d]pyrimidin-4-yl]-benzyl amide] | 0.2 | 28
Cn1cc(-c2cc3c(-c4ccc(CNC(=O)N5CC(OC(C)(C)C)C5)c(F)c4)ncnc3[nH]2)cn1 [Compound I-40, 3-tert-Butoxy-azetidine-1-carboxylic acid 2-fluoro-4-[6-(1-methyl-1H-pyrazol-4-yl)-7H-pyrrolo[2,3-d]pyrimidin-4-yl]-benzylamide] | 0.6 | 52
Cn1cc(-c2cc3c(-c4ccc(CNC(=O)N5Cc6ccccc6C5)c(F)c4)ncnc3[nH]2)cn1 [Compound I-41, 1,3-Dihydro-isoindole-2-carboxylic acid 2-fluoro-4-[6-(1-methyl-1H-pyrazol-4-yl)-7H-pyrrolo[2,3-d]pyrimidin-4-yl]-benzylamide] | 0.6 | 154
CN(C)CCn1cc(-c2cc3c(-c4ccc(CNC(=O)c5ccc(C(C)(C)C)cc5)c(F)c4)ncnc3[nH]2)cn1 [Compound I-42, 4-tert-Butyl-N-(4-{6-[1-(2-dimethylamino-ethyl)-1H-pyrazol-4-yl]-7H-pyrrolo[2,3-d]pyrimidin-4-yl}-2-fluoro-benzyl)-benzamide] | 0.5 | 230

From US20150284394A1, “INHIBITORS OF BRUTON'S TYROSINE KINASE” (HOFFMANN-LA ROCHE INC., priority 2012, published 2015)
